Data reported in patent publication US20090274655A1, “2-CARBOXY THIOPHENE DERIVATIVES AS ANTI VIRAL AGENTS” (priority 2006, published 2009).

What was measured:
[1] = system: sub-genomic HCV NS3-NS5B replicon of genotype 1a (subline 1.19) in Huh-7 cells; experiment: 1a luciferase replicon assay (replicon luciferase cell based assay); set-up: species or system HCV genotype 1a; conditions: Hepatitis C virus, genotype 1a replicon, firefly luciferase reporter, 48 hours
Experimental: (§1) Replicon Luciferase Cell Based Assay
(§2) A 40 mM stock solution in DMSO of each test compound was further diluted into 50 μL of DMSO in the first row of a 96 well, V-bottom microplate, to give 100 times the top concentration of the required dilution series. Aliquots of 25 μL of DMSO were added to each well of the remaining rows, and doubling dilutions of compound were prepared by the serial transfer of 25 μL volumes from the first row onwards. A PlateMate™ robot was used to transfer 1 μL volumes from each dilution well into duplicate wells of a clear bottom, black walled, 96 well assay plate (COSTAR #3603). Control wells received 1 μL of DMSO alone. […]
(§3) One tablet of Resazurin (Fisher #R/0040/79) was dissolved in 50 mL of phosphate buffered saline and 100 μL of solution added to all wells. The plate was re-incubated at 37° C. for a further 2-4 hours, wrapped in aluminium foil, before reading in a FLUOStar Optima at 595 nm. […] The plate was then read for luminescence on a TopCount® NXT™.
(§4) Potency: The luminescence values from all compound-free wells containing cells were averaged to obtain a positive control value. The mean luminescence value from the compound-free wells that had received no cells was used to provide the negative (background) control value. […] The quantifiable and specific reduction of luciferase signal in the presence of a drug is a direct measure of replicon inhibition. […]

[2] = system: sub-genomic HCV NS3-NS5B replicon of genotype 1b (ET subline) in Huh-7 cells; experiment: 1b luciferase replicon assay (replicon luciferase cell based assay); set-up: species or system HCV genotype 1b; conditions: Hepatitis C virus, Huh-7, 48 h, read-out: IC50 in the 1b luciferase replicon assay
Experimental: as §1, §2, §3, §4

CC(C)N(c1cc(-c2ccc(NC(=O)c3cscn3)cc2)sc1C(=O)O)C(=O)[C@H]1CC[C@H](C)CC1 [Example 1, 3-[[(trans-4-Methylcyclohexyl)carbonyl](1-methylethyl)amino]-5-{4-[(1,3-thiazol-4-ylcarbonyl)amino]phenyl}-2-thiophenecarboxylic acid]
IC50 [1]: < 100 nM | IC50 [2]: < 100 nM
